According to PMC9405102, “Targeted Modification and Structure-Activity Study of GL-29, an Analogue of the Antimicrobial Peptide Palustrin-2ISb” (Antibiotics, 2022):
≈ marks a conversion by molar mass, not a printed value. Like-named read-outs stand apart in the source and are kept apart here. Where a SMILES comes first, the peptide text is derived from it. Where no end group is shown, it is not given here.

Tests used:
[1] = system: P. aeruginosa (ATCC CRM 9027); format: cell-based, Pseudomonas aeruginosa
Description: (§1) The antimicrobial activity of the peptides was determined through the minimum inhibitory concentrations (MICs) and the minimum bactericidal concentration (MBCs) using the broth-dilution method in a 96-well plate, as described in the previous study. Six bacteria, including the Gram-positive bacteria, S. aureus (ATCC CRM 6538), MRSA (ATCC CRM 12493) and E. faecalis (NCTC 12697), the Gram-negative bacteria, E. coli (ATCC CRM 8739), K. pneumoniae (ATCC CRM 43816) and P. aeruginosa (ATCC CRM 9027), the yeast, C. albicans (ATCC CRM 10231) and clinical isolates, S. aureus (B042 V2E1 A), MRSA (B038 V1S1 A), E. coli (ATCC BAA-2340) and K. pneumoniae (ATCC BAA-1705) were used in these assays to evaluate the antimicrobial potency of the two peptides by determining their MICs and MBCs. All bacteria were cultured in MHB and the yeast, C. albicans was cultured in YPD broth overnight. Then, the microorganisms were sub-cultured and diluted to the final concentration of 2 × 10^5 CFU/mL to 5 × 10^5 CFU/mL. The Norfloxacin and amphotericin B were used as positive controls for the bacteria and yeast, respectively. The assay was repeated three times, with five replicates at each time.

[2] = system: C. albicans (ATCC CRM 10231); format: cell-based, Candida albicans
Description: as §1

[3] = system: S. aureus (ATCC CRM 6538); format: cell-based, Staphylococcus aureus
Description: as §1

[4] = system: S. aureus (B042 V2E1 A); format: cell-based, Staphylococcus aureus
Description: as §1

[5] = system: MRSA (ATCC CRM 12493); format: cell-based, methicillin-resistant S. aureus
Description: as §1

[6] = system: MRSA (B038 V1S1 A); format: cell-based, methicillin-resistant S. aureus
Description: as §1

[7] = system: E. coli (ATCC BAA-2340); format: cell-based, Escherichia coli
Description: as §1

[8] = system: E. coli (ATCC CRM 8739); format: cell-based, Escherichia coli
Description: as §1

[9] = system: K. pneumoniae (ATCC BAA-1705); format: cell-based, Klebsiella pneumoniae
Description: as §1

[10] = system: K. pneumoniae (ATCC CRM 43816); format: cell-based, Klebsiella pneumoniae
Description: as §1

[11] = system: S. aureus (ATCC CRM 6538); format: cell-based, Staphylococcus aureus; remark: listed apart in the source
Description: (§2) The MBIC and MBEC assays were performed to measure the inhibition and eradication of bacterial biofilm in the presence of different concentrations of peptides. Gram-positive bacteria were inoculated in Luria–Bertani (LB) broth at 37 °C overnight whereas Gram-negative bacteria were inoculated in tryptic soy broth (TSB), and then sub-cultured until reaching the logarithmic growth phase by measuring the OD values at a wavelength of 550nm. For the MBIC assay, 99 µL of diluted bacterial suspension (5 × 10^5 CFU/mL) was mixed with 1 µL of prepared peptide solutions in the wells of a round-bottomed 96-well plate, achieving the final concentrations from 512 to 1 µM, and then incubated at 37 °C for 24 h in a shaking incubator at 200 revolutions per minute (rpm). After this, the plate was washed twice by PBS and fixed with methanol for 30 min. For MBEC assay, 100 µL of diluted bacterial suspension (5 × 10^5 CFU/mL) was seeded into a round-bottomed 96-well plate and incubated at 37 °C for 24 h in a shaking incubator at 200 rpm to obtain mature biofilm. After this, plates were washed twice by PBS and incubated with different concentrations of peptide solution from 512 to 1 µM at 37 °C for 24 h. Afterwards, the plate was washed twice with PBS and fixed with methanol for 30 min. Then, both MBIC and MBEC plates were stained by 130 μL of 0.1% (g/v) crystal violet solutions for 30 min and washed with PBS until no apparent staining was observed. Evaporating crystal violet stains were dissolved by 33% (v/v) acetic acid, and the absorbance values were measured by a Synergy HT Microplate Reader (BioTek, Minneapolis, MN, USA) set to 595 nm. The minimum concentration that inhibited the formation of biofilm was defined when compared to the negative control group, as the MBIC. The minimum concentration that eradicated the biofilm was defined, when compared to the negative control group, as the MBEC. The biofilm assays were performed in triplicate.

[12] = system: E. faecalis (NCTC 12697); format: cell-based, Enterococcus faecalis
Description: as §2

[13] = system: MRSA (ATCC CRM 12493); format: cell-based, methicillin-resistant S. aureus; remark: listed apart in the source
Description: as §2

[14] = system: E. coli (ATCC CRM 8739); format: cell-based, Escherichia coli; remark: listed apart in the source
Description: as §2

[15] = system: K. pneumoniae (ATCC CRM 43816); format: cell-based, Klebsiella pneumoniae; remark: listed apart in the source
Description: as §2

[16] = system: P. aeruginosa (ATCC CRM 9027); format: cell-based, Pseudomonas aeruginosa; remark: listed apart in the source
Description: as §2

[17] = clinical isolated strain S. aureus (B042 V2E1 A)
[18] = clinical isolated strain MRSA (B038 V1S1 A)
[19] = KPC-producing resistant strain E. coli (ATCC BAA-2340)
[20] = KPC-producing resistant strain K. pneumoniae (ATCC BAA-1705)

GLWNSIKIAGKKLFVNVLDKIR-NH2 [GL-22]
MBC ([1]; ATCC CRM 9027): 32 µM | MIC ([1]; ATCC CRM 9027): 32 µM | MBC ([2]; ATCC CRM 10231): 256 µM | MIC ([2]; ATCC CRM 10231): 128 µM | MBC ([3]; ATCC CRM 6538): 4 µM | MIC ([3]; ATCC CRM 6538): 4 µM | MBC ([4]; B042 V2E1 A): 64 µM | MIC ([4]; B042 V2E1 A): 32 µM | MBC ([5]; ATCC CRM 12493): 8 µM | MIC ([5]; ATCC CRM 12493): 8 µM | MBC ([6]; B038 V1S1 A): 4 µM | MIC ([6]; B038 V1S1 A): 4 µM | MBC ([7]; ATCC BAA-2340): 4 µM | MIC ([7]; ATCC BAA-2340): 2 µM | MBC ([8]; ATCC CRM 8739): 4 µM | MIC ([8]; ATCC CRM 8739): 4 µM | MBC ([9]; ATCC BAA-1705): 4 µM | MIC ([9]; ATCC BAA-1705): 4 µM | MBC ([10]; ATCC CRM 43816): 4 µM | MIC ([10]; ATCC CRM 43816): 4 µM | MBEC ([11]; ATCC CRM 6538, 24 h): > 512 µM | MBIC ([11]; ATCC CRM 6538, 24 h): 8 µM | MBEC ([12]; NCTC 12697, 24 h): > 512 µM | MBIC ([12]; NCTC 12697, 24 h): 32 µM | MBEC ([13]; ATCC CRM 12493, 24 h): > 512 µM | MBIC ([13]; ATCC CRM 12493, 24 h): 8 µM | MBEC ([14]; ATCC CRM 8739, 24 h): > 512 µM | MBIC ([14]; ATCC CRM 8739, 24 h): 16 µM | MBEC ([15]; ATCC CRM 43816, 24 h): > 512 µM | MBIC ([15]; ATCC CRM 43816, 24 h): 16 µM | MBEC ([16]; ATCC CRM 9027, 24 h): > 512 µM | MBIC ([16]; ATCC CRM 9027, 24 h): 128 µM

GLWNSIKIA-NH2 [GL-9, GLWNSIKIA-NH2]
MBC ([1]; P. aeruginosa (ATCC CRM 9027)): >512 µM | MIC ([1]; P. aeruginosa (ATCC CRM 9027)): >512 µM | MBC ([2]; C. albicans (ATCC CRM 10231)): >512 µM | MIC ([2]; C. albicans (ATCC CRM 10231)): >512 µM | MBC ([3]; S. aureus (ATCC CRM 6538)): 512 µM | MIC ([3]; S. aureus (ATCC CRM 6538)): 512 µM | MBC [4, 17]: >512 µM | MIC [4, 17]: >512 µM | MBC ([5]; MRSA (ATCC CRM 12493)): >512 µM | MIC ([5]; MRSA (ATCC CRM 12493)): >512 µM | MBC [6, 18]: >512 µM | MIC [6, 18]: >512 µM | MBC [7, 19]: >512 µM | MIC [7, 19]: >512 µM | MBC ([8]; E. coli (ATCC CRM 8739)): > 512 µM | MIC ([8]; E. coli (ATCC CRM 8739)): 512 µM | MBC [9, 20]: >512 µM | MIC [9, 20]: >512 µM | MBC ([10]; K. pneumoniae (ATCC CRM 43816)): >512 µM | MIC ([10]; K. pneumoniae (ATCC CRM 43816)): >512 µM | MBEC ([11]; biofilm eradication, S. aureus (ATCC CRM 6538)): >512 µM | MBIC ([11]; biofilm formation, S. aureus (ATCC CRM 6538)): >512 µM | MBEC ([12]; biofilm eradication, E. faecalis (NCTC 12697)): >512 µM | MBIC ([12]; biofilm formation, E. faecalis (NCTC 12697)): >512 µM | MBEC ([13]; biofilm eradication, MRSA (ATCC CRM 12493)): >512 µM | MBIC ([13]; biofilm formation, MRSA (ATCC CRM 12493)): >512 µM | MBEC ([14]; biofilm eradication, E. coli (ATCC CRM 8739)): 512/>512 μM | MBIC ([14]; biofilm formation, E. coli (ATCC CRM 8739)): 512/>512 μM | MBEC ([15]; biofilm eradication, K. pneumoniae (ATCC CRM 43816)): >512 µM | MBIC ([15]; biofilm formation, K. pneumoniae (ATCC CRM 43816)): >512 µM | MBEC ([16]; biofilm eradication, P. aeruginosa (ATCC CRM 9027)): >512 µM | MBIC ([16]; biofilm formation, P. aeruginosa (ATCC CRM 9027)): >512 µM

CC[C@H](C)[C@H](NC(=O)[C@H](CCCCN)NC(=O)[C@@H](NC(=O)[C@H](CO)NC(=O)[C@H](CC(N)=O)NC(=O)[C@H](Cc1c[nH]c2ccccc12)NC(=O)[C@H](CC(C)C)NC(=O)CN)[C@@H](C)CC)C(=O)N[C@@H](C)C(=O)NCC(=O)N[C@@H](CCCCN)C(=O)N[C@@H](CCCCN)C(=O)N[C@@H](CC(C)C)C(=O)N[C@@H](Cc1ccccc1)C(=O)N[C@H](C(=O)N[C@@H](CC(N)=O)C(=O)N[C@H](C(=O)N[C@@H](CC(C)C)C(=O)N[C@@H](CC(=O)O)C(=O)N[C@@H](CCCCN)C(=O)N[C@H](C(=O)N[C@@H](CCCNC(=N)N)C(=O)N[C@H]1CSSC[C@@H](C(=O)O)NC(=O)CNC(=O)CNC(=O)[C@H](C)NC(=O)[C@H](C(C)C)NC(=O)[C@H](CCCCN)NC1=O)[C@@H](C)CC)C(C)C)C(C)C [GL-29] (HELM PEPTIDE1{G.L.W.N.S.I.K.I.A.G.K.K.L.F.V.N.V.L.D.K.I.R.C.K.V.A.G.G.C}$PEPTIDE1,PEPTIDE1,23:R3-29:R3$$$V2.0; N-terminus and C-terminus assumed; bridges inferred)
MBC ([1]; ATCC CRM 9027): 16 µM (≈ 50.1 µg/mL) | MIC ([1]; ATCC CRM 9027): 16 µM (≈ 50.1 µg/mL) | MBC ([2]; ATCC CRM 10231): 256 µM (≈ 801 µg/mL) | MIC ([2]; ATCC CRM 10231): 128 µM (≈ 401 µg/mL) | MBC ([3]; ATCC CRM 6538): 4 µM (≈ 12.5 µg/mL) | MIC ([3]; ATCC CRM 6538): 4 µM (≈ 12.5 µg/mL) | MBC ([4]; B042 V2E1 A): 4 µM (≈ 12.5 µg/mL) | MIC ([4]; B042 V2E1 A): 4 µM (≈ 12.5 µg/mL) | MBC ([5]; ATCC CRM 12493): 8 µM (≈ 25 µg/mL) | MIC ([5]; ATCC CRM 12493): 8 µM (≈ 25 µg/mL) | MBC ([6]; B038 V1S1 A): 2 µM (≈ 6.26 µg/mL) | MIC ([6]; B038 V1S1 A): 2 µM (≈ 6.26 µg/mL) | MBC ([7]; ATCC BAA-2340): 4 µM (≈ 12.5 µg/mL) | MIC ([7]; ATCC BAA-2340): 2 µM (≈ 6.26 µg/mL) | MBC ([8]; ATCC CRM 8739): 4 µM (≈ 12.5 µg/mL) | MIC ([8]; ATCC CRM 8739): 2 µM (≈ 6.26 µg/mL) | MBC ([9]; ATCC BAA-1705): 4 µM (≈ 12.5 µg/mL) | MIC ([9]; ATCC BAA-1705): 4 µM (≈ 12.5 µg/mL) | MBC ([10]; ATCC CRM 43816): 8 µM (≈ 25 µg/mL) | MIC ([10]; ATCC CRM 43816): 8 µM (≈ 25 µg/mL) | MBEC ([11]; ATCC CRM 6538, 24 h): 128 µM | MBIC ([11]; ATCC CRM 6538, 24 h): 4 µM | MBEC ([12]; NCTC 12697, 24 h): > 512 µM | MBIC ([12]; NCTC 12697, 24 h): 16 µM | MBEC ([13]; ATCC CRM 12493, 24 h): 256 µM | MBIC ([13]; ATCC CRM 12493, 24 h): 8 µM | MBEC ([14]; ATCC CRM 8739, 24 h): 128 µM | MBIC ([14]; ATCC CRM 8739, 24 h): 4 µM | MBEC ([15]; ATCC CRM 43816, 24 h): > 512 µM | MBIC ([15]; ATCC CRM 43816, 24 h): 16 µM | MBEC ([16]; ATCC CRM 9027, 24 h): > 512 µM | MBIC ([16]; ATCC CRM 9027, 24 h): 64 µM
